Where only a bound is given, the exact number is not on record here.

We go through 40 compounds from US20050148534A1, “Small molecule compositions and methods for increasing drug efficiency using compositions thereof” (priority 2003, published 2005).

In one assay the test system is tubulin. As to the kind of experiment: Fluorescence-based microtubule polymerization assay (MPA). In kind it is biochemical. The following applies: mean percentage of paclitaxel or vinblastine activity; 0.75-10 micromolar. The text has this:
Drug-linker constructs may further be screened using functional assays predictive of biological activity. […] Tubulin assembly or inhibition thereof may be monitored by fluorescence using the CytoDYNAMIX Screen™ 10 kit available from Cytoskeleton (1830 S. Acoma St., Denver, Colo.). […] Emission is monitored at 405 nm with excitation at 360 nm. […] Tubulin assembly or inhibition may also be monitored by light scattering which is approximated by the apparent absorption at 350 nm. For paclitaxel drug conjugates BSA is employed to prevent aggregation and glycerol, which is a tubulin polymerization enhancer, is omitted from the kit to increase the signal to noise ratio.
The assay kit (#BK011) was purchased from Cytoskeleton (Denver, Colo.). The assays were carried out according to the manufacturer's instructions, except that 1 mg/ml BSA (Sigma #A3059) was included in all assays. […] Parent drugs and conjugates were tested at 0.75, 1.5, 3 and 10 micromolar final concentration and results represent a comparison of conjugate and parent drug curves obtained from the linear range of the dose responses.

Another assay concerns the target T1, TK2 (Homo sapiens, UniProt O00142).
T1 sequence (O00142 34-265): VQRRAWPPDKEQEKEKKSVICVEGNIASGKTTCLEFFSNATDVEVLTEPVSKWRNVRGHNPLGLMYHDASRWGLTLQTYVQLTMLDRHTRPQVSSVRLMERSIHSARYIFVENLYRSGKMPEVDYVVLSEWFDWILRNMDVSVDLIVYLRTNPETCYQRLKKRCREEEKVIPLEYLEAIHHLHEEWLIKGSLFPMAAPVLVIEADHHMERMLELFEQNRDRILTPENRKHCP
Also noted: unit not given here. To be noted: substrate activity; literature (Johansson et al.; Eriksson et al.; Wang et al.), source per Table 3; cited from earlier work.

The target of assay [1] is deoxycytidine kinase (dCK) (Homo sapiens, UniProt P27707). To be noted: cited from earlier work; for dCK: substrate activity, literature (Johansson et al.; Eriksson et al.; Wang et al.), source per Table 3.
Sequence of deoxycytidine kinase (dCK) (P27707 whole entry, species assumed): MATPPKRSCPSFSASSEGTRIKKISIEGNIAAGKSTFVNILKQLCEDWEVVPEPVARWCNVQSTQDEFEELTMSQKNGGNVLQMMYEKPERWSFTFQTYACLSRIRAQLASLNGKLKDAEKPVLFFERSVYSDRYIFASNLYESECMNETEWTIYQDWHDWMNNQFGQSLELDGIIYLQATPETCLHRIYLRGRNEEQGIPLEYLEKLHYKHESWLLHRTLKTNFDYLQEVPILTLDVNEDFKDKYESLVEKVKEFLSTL

Regarding `CC[C@]1(O)C[C@@H]2CN(CCc3c([nH]c4ccccc34)[C@@](C(=O)OC)(c3cc4c(cc3OC)N(C)[C@H]3[C@@](O)(C(=O)NCCCCCCNC(=O)OC(C)(C)C)[C@H](O)[C@]5(CC)C=CCN6CC[C@]43[C@@H]65)C2)C1` [VBL-3Am-ALK(6)-NH(B)], the “Ave. MPA Act” value in the assay on tubulin is on record as “A (A<60)”.

On to `Cc1cn([C@@H]2C[C@H](O)[C@@H](CO)O2)c(=O)[nH]c1=O` [α-D-Thy], for which the TK2 on TK2 is 2.4.

For the compound `Nc1ccn([C@@H]2C[C@@H](O)[C@H](CO)O2)c(=O)n1` [β-L-dC], at TK2, the TK2 is 70.

Regarding `Nc1nc(=O)n([C@H]2C[C@H](O)[C@@H](CO)O2)cc1-c1ccco1` [R2 = 2-furyl, X = C], the TK2 at TK2 was 10. Further, in assay [1], the dCK is 3.

For the compound `CC[C@]1(O)C[C@@H]2CN(CCc3c([nH]c4ccccc34)[C@@](C(=O)OC)(c3cc4c(cc3OC)N(C)[C@H]3[C@@](O)(C(=O)NCCCCCCCCN)[C@H](O)[C@]5(CC)C=CCN6CC[C@]43[C@@H]65)C2)C1` [VBL-3Am-ALK(8)-NH2], in the assay on tubulin, the “Ave. MPA Act” value is given as “B (B=60-100)”.

With `CC(=O)O[C@@]12CO[C@@H]1C[C@H](O)[C@@]1(C)C(=O)[C@H](OC(=O)CCCCCN)C3=C(C)[C@@H](OC(=O)[C@H](O)[C@@H](NC(=O)c4ccccc4)c4ccccc4)C[C@@](O)([C@@H](OC(=O)c4ccccc4)[C@H]21)C3(C)C` [PXL-10Es-ALK(5)-NH2], the “Ave. MPA Act” value in the assay on tubulin is on record as “B (B=60-100)”.

For `Nc1cn([C@@H]2O[C@H](CO)[C@@H](O)[C@H]2O)c(=O)[nH]c1=O` [R2 = NH2, R4 = H, R3 = OH, 5-amino-uridine], in assay [1], the “activity towards dCK” value is given as 17%.

In the case of `Cc1cn([C@@H]2O[C@H](CO)[C@@H](O)[C@@H]2O)c(=O)[nH]c1=O` [R2 = CH3, R5 = OH (araT), araT], on TK2, the TK2 is listed as 60.

As for `CC[C@]1(O)C[C@@H]2CN(CCc3c([nH]c4ccccc34)[C@@](C(=O)OC)(c3cc4c(cc3OC)N(C)[C@H]3[C@@](O)(C(=O)NCCCCCCCCCCCCN)[C@H](O)[C@]5(CC)C=CCN6CC[C@]43[C@@H]65)C2)C1` [VBL-3Am-ALK(12)-NH2], the “Ave. MPA Act” value in the assay with tubulin is on record as “B (B=60-100)”.

Take `Cc1cn([C@@H]2C[C@@H](O)[C@H](CO)O2)c(=O)[nH]c1=O` [β-L-Thy]: at TK2, the TK2 is reported as 60. The dCK in assay [1] was 0.8.

Turning to `Nc1nc(Cl)nc2c1ncn2C1CC(CO)C(CO)O1` (centres unmarked), the dCK in assay [1] is listed as 40.

As for `C=CCOC(=O)O[C@@H](C(=O)O[C@H]1C[C@@]2(O)[C@@H](OC(=O)c3ccccc3)[C@@H]3[C@]4(OC(C)=O)CO[C@@H]4C[C@H](O)[C@@]3(C)C(=O)[C@H](OC(C)=O)C(=C1C)C2(C)C)[C@@H](NC(=O)c1ccccc1)c1ccccc1` [PXL-2′Alloc], the “Ave. MPA Act” value in the assay with tubulin was “A (A<60)”.

Turning to `Nc1ccn([C@H]2CC[C@@H](CO)O2)c(=O)n1` [R4 = H, R5 = H, R3 = H (ddCy, Zalcitabine)], at TK2, the TK2 is less than 1. Moreover, the dCK in assay [1] was 30.

As for `Nc1ccn([C@@H]2O[C@H](CO)[C@@H](O)[C@H]2F)c(=O)n1` [R4 = F, R5 = H, R3 = OH], at TK2, the TK2 was 30. Moreover, in assay [1], the dCK is 300.

In the case of `CC(=O)O[C@@]12CO[C@@H]1C[C@H](O)[C@@]1(C)C(=O)[C@H](OC(=O)CCCCCCNC(=O)OCc3ccccc3)C3=C(C)[C@@H](OC(=O)[C@H](O)[C@@H](NC(=O)c4ccccc4)c4ccccc4)C[C@@](O)([C@@H](OC(=O)c4ccccc4)[C@H]21)C3(C)C` [PXL-10Es-Alk(6)-NH(Z)], the “Ave. MPA Act” value in the assay with tubulin is recorded as “A (A<60)”.

For `Nc1ccn(C2CC(O)C(CO)O2)c(=O)n1` [α-L-dC], the TK2 on TK2 is given as 0.4.

Take `Cc1cn([C@H]2CC[C@@H](CO)O2)c(=O)[nH]c1=O` [β-ddT(3′-deoxyThy), 3′-deoxyThy]: the TK2 at TK2 is 3.2.

On to `CC[C@]1(O)C[C@@H]2CN(CCc3c([nH]c4ccccc34)[C@@](C(=O)OC)(c3cc4c(cc3OC)N(C)[C@H]3[C@@](O)(C(=O)OC)[C@H](O)[C@]5(CC)C=CCN6CC[C@]43[C@@H]65)C2)C1` [Desacetyl vinblastine], for which the “Ave. MPA Act” value with tubulin is “C (C>100)”.

On to `Cc1cn([C@H]2C[C@@H](O)[C@H](CO)O2)c(=O)[nH]c1=O` [α-L-Thy], for which, at TK2, the TK2 was 1.5.

In the case of `O=c1ccn([C@@H]2O[C@H](CO)[C@@H](O)[C@H]2O)c(=O)[nH]1` [R2 = H, R5 = OH (araU), araU], the TK2 on TK2 was 20.

`Nc1nc(=O)n([C@H]2C[C@H](O)[C@@H](CO)O2)cc1-c1cccs1` [R2 = 2-thienyl, X = C]: on TK2, the TK2 was 30. The dCK in assay [1] is 2.

Turning to `O=c1[nH]c(=O)n([C@@H]2O[C@H](CO)[C@@H](O)[C@@H]2O)cc1C1CC1` [R2 = cyclopropyl, R5 = OH], the TK2 on TK2 was 15.

Regarding `Nc1nc(=O)n([C@H]2C[C@H](O)[C@@H](CO)O2)cc1-c1ccsc1` [R2 = 3-thienyl, X = C], the TK2 at TK2 is on record as 30. The dCK in assay [1] is given as less than 1.

As for (±)-Cytallene, the TK2 on TK2 was less than 1. The dCK in assay [1] is listed as 20.

Take `Nc1nc(=O)n([C@H]2C[C@H](O)[C@@H](CO)O2)cc1-c1ccoc1` [R2 = 3-furyl, X = C]: at TK2, the TK2 is on record as 50. Besides, in assay [1], the dCK is reported as less than 1.

Consider `Nc1ccn([C@H]2CC[C@@H](CO)O2)c(=O)n1` [β-ddC(2′,3′-dideoxyC), 2′,3′-dideoxyC], for which the dCK in assay [1] is recorded as 7.1.

On to `CC#Cc1cn([C@@H]2O[C@H](CO)[C@@H](O)[C@@H]2O)c(=O)[nH]c1=O`, for which the TK2 at TK2 is on record as 30.

`Cc1cn([C@H]2C[C@H](O)[C@@H](CO)O2)c(=O)nc1N` [R2 = CH3, X = C]: the TK2 at TK2 is reported as 40.

As to `Cc1cn(C2CCC(CO)O2)c(=O)[nH]c1=O` (stereo not drawn) [α-ddT], the TK2 at TK2 is on record as 9.8.

Regarding `Nc1nc(=O)n([C@H]2C[C@H](O)[C@@H](CO)O2)cc1F` [R2 = F, X = C], the TK2 at TK2 is reported as 90. Moreover, the dCK in assay [1] is 20.

Consider `Nc1ccn([C@@H]2O[C@H](CO)[C@@H](O)[C@H]2O)c(=O)n1` [R4 = OH, R5 = H, R3 = OH], for which the TK2 at TK2 is less than 1.

As to `C[C@H]1C=C[C@@H](CO)O1`, the TK2 on TK2 is given as less than 1. Moreover, the dCK in assay [1] is listed as 4.

Turning to `Nc1ccn([C@@H]2C[C@H](O)[C@@H](CO)O2)c(=O)n1` [α-D-dC], on TK2, the TK2 is 1.8.

For the compound `Nc1nc(=O)n([C@H]2C[C@H](O)[C@@H](CO)O2)cc1-c1cccnc1` [R2 = 3-pyridyl, X = C], the TK2 on TK2 was less than 1. Moreover, the dCK in assay [1] is 4.

On to `Nc1nc(=O)n([C@H]2C[C@H](O)[C@@H](CO)O2)cc1-c1ccccn1` [R2 = 2-pyridyl, X = C], for which, at TK2, the TK2 is recorded as 7. For the same compound, in assay [1], the dCK is reported as less than 1.

On to `Nc1nc(=O)n([C@H]2C[C@H](O)[C@@H](CO)O2)cc1Br` [R2 = Br, X = C], for which the TK2 at TK2 is given as 40. Besides, the dCK in assay [1] is listed as 20.

Consider `O=c1[nH]c(=O)n([C@@H]2O[C@H](CO)[C@@H](O)[C@@H]2O)cc1-c1cccs1` [R2 = 2-thienyl, R5 = OH], for which the TK2 on TK2 is recorded as 6.

As for `Nc1ccn([C@H]2C[C@H](F)[C@@H](CO)O2)c(=O)n1` [R4 = H, R5 = H, R3 = F], the TK2 on TK2 is reported as less than 1. The dCK in assay [1] is 60.

`Nc1nc(=O)n([C@H]2C[C@H](O)[C@@H](CO)O2)cc1C1CC1` [R2 = cyclopropyl, X = C]: the TK2 on TK2 is less than 1. The dCK in assay [1] was 20.

On to `Nc1nc(=O)n([C@H]2C[C@H](O)[C@@H](CO)O2)cc1-c1ccncc1` [R2 = 4-pyridyl, X = C], for which the TK2 at TK2 was 2. In addition, in assay [1], the dCK is 5.
